We go through four compounds from publication PMC4779111, “A Human Renal Proximal Tubule Cell Line with Stable Organic Anion Transporter 1 and 3 Expression Predictive for Antiviral-Induced Toxicity” (The AAPS Journal, 2016).

Data set [1] can be described thus: MTT viability assay, ciPTEC-OAT1. It is filed as cell-based, human. The settings on record: human, ciPTEC-OAT1 cells (monolayers, 96-well); for IC50 at 24 h: read-out: IC50 on cell viability (MTT), 24 h; for IC50 at 72 h: read-out: IC50 on cell viability (MTT), 72 h.
Another data set has as its system ciPTEC-OAT1. The experiment in a line: MTT viability assay, ciPTEC-OAT1. It is filed as cell-based, human. The note with it: for Cell viability (MTT): ciPTEC-OAT1, 1 mM, 48 h, serum-free medium; for Cell viability (MTT), concentration and time dependence: ciPTEC-OAT1, 24, 48 and 72 h. Background: Tetrazolium dyes change colour on reduction, which living cells bring about.

Another data set concerns ciPTEC-OAT3. The experiment in a line: MTT viability assay, ciPTEC-OAT3. It is filed as cell-based, human. The settings on record: for Cell viability (MTT), concentration and time dependence: ciPTEC-OAT3, 24, 48 and 72 h. The protocol: Cell toxicity was analyzed further in presence of MRP and BCRP efflux inhibitors MK571 (5 μM) and KO143 (10 μM).
Data set [2] concerns the target T1, OAT1 (Homo sapiens, UniProt Q4U2R8).
T1 sequence (Q4U2R8 1-563): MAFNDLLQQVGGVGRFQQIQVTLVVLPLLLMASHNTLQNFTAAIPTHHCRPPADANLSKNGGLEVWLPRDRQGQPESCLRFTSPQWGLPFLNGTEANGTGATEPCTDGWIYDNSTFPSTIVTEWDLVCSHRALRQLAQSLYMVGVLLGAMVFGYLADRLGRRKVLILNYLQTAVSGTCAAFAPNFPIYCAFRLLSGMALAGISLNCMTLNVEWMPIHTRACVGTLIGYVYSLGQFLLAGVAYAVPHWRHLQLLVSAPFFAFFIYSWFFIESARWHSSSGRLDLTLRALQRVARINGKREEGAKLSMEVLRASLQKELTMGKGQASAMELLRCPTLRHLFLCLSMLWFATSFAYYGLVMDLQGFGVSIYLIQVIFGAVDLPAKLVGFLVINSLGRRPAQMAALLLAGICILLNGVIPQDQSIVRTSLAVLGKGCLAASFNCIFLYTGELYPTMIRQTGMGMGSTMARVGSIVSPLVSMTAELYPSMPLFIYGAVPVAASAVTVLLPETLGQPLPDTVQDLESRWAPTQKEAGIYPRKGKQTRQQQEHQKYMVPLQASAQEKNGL
Also noted: method as in PMID 23856525. The note with it: substrate PAH, HeLa-OAT1; read-out: IC50 (literature); cited from earlier work.

For data set [3] the following is noted: plasma, maximal free plasma concentration, 47 (zidovudine), cited from earlier work.
A further data set concerns hOAT1-CHO and HEK-OAT1. The note with it: cited from earlier work.
On the set-up of data set [4]: method as in PMID 19445515. The settings on record: cited from earlier work.
In data set [5] the target is T1, OAT1. The experiment in a line: Inhibition of OAT-mediated fluorescein uptake in ciPTEC-OAT1. It is filed as cell-based. Also noted: host or cells: ciPTEC (human conditionally immortalized proximal tubule epithelial cells), lentiviral transduction. The note with it: for Effect on OAT-mediated fluorescein uptake (in words): ciPTEC-OAT1, fluorescein 1 μM, 10 min; for DDI index Cmax/IC50: ciPTEC-OAT1, with the second-listed (higher) Cmax. The protocol:
(§1) All chemicals were obtained from Sigma, unless stated otherwise. Uptake was stopped by washing three times with ice-cold HBSS (4°C).
(§2) Non-linear regression with variable slope constraining the top to 100% was used to fit the data after background subtraction with GraphPad Prism. Statistics was performed by two-way ANOVA (two-tailed, α = 0.05) using GraphPad Prism as well. All data is presented as mean ± SEM of at least three separate experiments (n = 3) performed in triplicate, unless stated otherwise.

In data set [6] the target is T2, OAT3 (Homo sapiens, UniProt Q8TCC7).
T2 sequence (Q8TCC7 1-542): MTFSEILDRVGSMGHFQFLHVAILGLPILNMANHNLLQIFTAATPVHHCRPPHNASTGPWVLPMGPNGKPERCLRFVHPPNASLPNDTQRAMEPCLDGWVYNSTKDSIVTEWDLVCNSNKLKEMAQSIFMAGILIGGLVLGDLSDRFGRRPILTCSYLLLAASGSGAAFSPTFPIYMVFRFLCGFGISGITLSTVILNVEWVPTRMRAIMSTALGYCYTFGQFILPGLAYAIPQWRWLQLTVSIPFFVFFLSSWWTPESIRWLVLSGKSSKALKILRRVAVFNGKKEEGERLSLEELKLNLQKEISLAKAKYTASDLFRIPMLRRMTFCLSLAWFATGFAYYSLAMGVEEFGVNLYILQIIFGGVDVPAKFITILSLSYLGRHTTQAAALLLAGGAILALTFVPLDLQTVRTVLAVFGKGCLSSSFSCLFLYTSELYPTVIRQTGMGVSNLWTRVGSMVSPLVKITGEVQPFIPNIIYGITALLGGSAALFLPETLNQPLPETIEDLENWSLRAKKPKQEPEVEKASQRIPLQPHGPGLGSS
The experiment in a line: Inhibition of OAT-mediated fluorescein uptake in ciPTEC-OAT3. The protocol: as §1, §2

In another data set the target is OCT2 (Homo sapiens, UniProt O15244). The note with it: ASP+ 1 µM, 60 min, HBSS 37°C; similar IC50 in ciPTEC parent, ciPTEC-OAT1, ciPTEC-OAT3 (p>0.05). The protocol:
Supplementary Figure S1. […] ASP+ uptake (1 […]
µM) by ciPTEC parent, ciPTEC-OAT1 and ciPTEC-OAT3 when co-incubated with OCT2-substrate […]
The lines represent the fit according to a one-site competition model. Values are expressed as ±SEM, (ciPTEC, n=3; ciPTEC- […]
OAT1, n=4; ciPTEC-OAT3, n=2.
(1 picture or pasted object on this page, not shown here)

Data set [7] has as its target T2, OAT3. The note with it: substrate estrone sulfate, Xenopus-OAT3; read-out: IC50 (literature); cited from earlier work.
Data set [8] concerns the target T2, OAT3. Further details: host or cells: ciPTEC (human conditionally immortalized proximal tubule epithelial cells), lentiviral transduction. The note with it: substrate sitagliptin, CHO-OAT3; read-out: IC50 (literature); cited from earlier work.
In the next data set the test system is ciPTEC parent. The experiment in a line: MTT viability assay, ciPTEC parent. The settings on record: 50 μM (10× Cmax) with MK571 and KO143. The class given is cell-based, human. The protocol: Briefly, monolayers of ciPTEC (96-wells) were exposed to antivirals in serum-free medium (SFM) on day 6 of maturation.
as §2

Setting [9] is: first-listed (lower) value per drug, ref 40 (adefovir), 42 (cidofovir), 45 (tenofovir).
Setting [10] is: second-listed (higher) value per drug, ref 41 (adefovir), 43 (cidofovir), 46 (tenofovir).
The mark [11] stands for this setting: 120 h, OAT1 overexpression cells, read-out: IC50 on cell viability (literature), 120 h.
Setting [12] is: read-out: IC50 on cell viability (literature), 48 h, OAT1 overexpression cells.

Like-named read-outs stand apart in the source and are kept apart here.

Chain of OCT2 (O15244 whole entry): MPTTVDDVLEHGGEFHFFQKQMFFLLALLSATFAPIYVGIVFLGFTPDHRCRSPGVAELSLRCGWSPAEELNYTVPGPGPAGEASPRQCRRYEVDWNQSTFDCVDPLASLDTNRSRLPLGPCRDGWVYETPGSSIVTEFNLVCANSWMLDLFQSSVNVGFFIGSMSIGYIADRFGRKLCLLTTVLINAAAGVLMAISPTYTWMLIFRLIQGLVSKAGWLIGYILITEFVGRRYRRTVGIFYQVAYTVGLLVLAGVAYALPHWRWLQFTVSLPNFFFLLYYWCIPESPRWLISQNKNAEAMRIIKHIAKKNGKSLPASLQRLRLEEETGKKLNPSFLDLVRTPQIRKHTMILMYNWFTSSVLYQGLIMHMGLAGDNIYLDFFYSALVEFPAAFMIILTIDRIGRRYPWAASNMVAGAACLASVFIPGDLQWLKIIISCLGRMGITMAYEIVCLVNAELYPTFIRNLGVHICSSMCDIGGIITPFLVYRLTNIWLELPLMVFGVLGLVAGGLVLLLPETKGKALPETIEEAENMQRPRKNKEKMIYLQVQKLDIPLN

On to `Nc1ncnc2c1ncn2CCOCP(=O)(O)O` [Adefovir, adefovir], for which, in data set [1], half-maximal inhibition (IC50 at 48 h) was put at 303 ± 38 µM; the IC50 (as a rule, the point on the concentration scale where inhibition reaches its midpoint) at 24 h stood at 462 ± 52 µM; the IC50 at 72 h came to 230 ± 37 µM. Further, in the data set with ciPTEC-OAT1, the “Cell viability (MTT)” value is recorded as “significantly affected cell viability”; the “Cell viability (MTT), concentration and time dependence” value was “concentration- and time-dependent decrease in viability”. Besides, in the data set with ciPTEC-OAT3, the “Cell viability (MTT), concentration and time dependence” value is “less pronounced”. For the same compound, the IC50 on OAT1 [2] was 8.1 µM. For the same compound, in data set [3] (setting [9]), the Cmax (usually the peak of the concentration-time curve) is 1.6 µM. In addition, the Cmax in data set [3] (setting [10]) is 38.8 µM. The IC50 in the data set with hOAT1-CHO and HEK-OAT1 (setting [11]) was 1.4 ± 0.7 µM. The IC50 with hOAT1-CHO and HEK-OAT1 (setting [12]) was 0.22 ± 0.08 µM. Further, the “Renal excretion of unchanged drug (in words)” value in [4] was “largely excreted unchanged by the kidneys”. In addition, at OAT1 [5], the IC50 turned out to be 23 ± 4 µM, the “Effect on OAT-mediated fluorescein uptake (in words)” value was “Concentration-dependent inhibition” and the “DDI index Cmax/IC50” value was found to be 4.2.
For `CN/C(=N/CCSCc1nc[nH]c1C)NC#N` [Cimetidine, cimetidine], the IC50 is 215 ± 162 µM at OAT3 [6], 53 µM at OAT3 [7] and 79 µM at OAT3 [8]. Also, on OCT2, the “Inhibition of ASP+ uptake at OCT2” value is reported as “significant inhibition”. Moreover, half-maximal inhibition at OAT1 [5] (human, ciPTEC-OAT1 cells (mature monolayers), probe fluorescein (1 μM)) (IC50 at 10 min) required 654 ± 291 µM.
In turn, `C[C@H](Cn1cnc2c(N)ncnc21)OCP(=O)(O)O` [Tenofovir, tenofovir] registered an IC50 at 48 h in data set [1] of 189 ± 48 µM. In [1], the IC50 at 24 h was 114 ± 25 µM. Further, the IC50 at 72 h in data set [1] worked out at 223 ± 67 µM. Moreover, the “Cell viability (MTT)” value with ciPTEC-OAT1 was “significantly affected cell viability”; with ciPTEC-OAT3 (ciPTEC-OAT3, 1 mM, 48 h, serum-free medium), “slightly decreased”. Further, the “Cell viability (MTT), concentration and time dependence” value in the data set with ciPTEC-OAT1 is “concentration- and time-dependent decrease in viability”; in the data set on ciPTEC-OAT3, “less pronounced”. The IC50 at OAT1 [2] is 29.3 µM; in the data set with hOAT1-CHO and HEK-OAT1 (setting [11]), 21 ± 7 µM; in the data set with hOAT1-CHO and HEK-OAT1 (setting [12]) it was 10 ± 2 µM; against OAT1 [5], 42 ± 8 µM. For the same compound, the Cmax is 0.52 µM in data set [3] (setting [9]) and 0.72 µM in data set [3] (setting [10]). In data set [4], the “Renal excretion of unchanged drug (in words)” value is reported as “largely excreted unchanged by the kidneys”. Also, the “Effect on OAT-mediated fluorescein uptake (in words)” value at OAT1 [5] is “Concentration-dependent inhibition”. At OAT1 [5], the “DDI index Cmax/IC50” value is listed as 0.019.
Regarding `Cc1cn([C@H]2C[C@H](N=[N+]=[N-])[C@@H](CO)O2)c(=O)[nH]c1=O` [Zidovudine, zidovudine], the IC50 is 21 ± 4 µM at OAT3 [6] and 14 ± 7 µM at OAT1 [5]. Also, the “Cell viability in presence of efflux inhibitors” value with ciPTEC-OAT1 (ciPTEC-OAT1, 50 μM (10× Cmax) with MK571 and KO143) is “did not affect cell viability”; in the data set on ciPTEC-OAT3 (ciPTEC-OAT3, 50 μM (10× Cmax) with MK571 and KO143), “did not affect cell viability”; in the data set on ciPTEC parent, “did not affect cell viability”. In addition, the “Cell viability (MTT), concentration and time dependence” value in the data set on ciPTEC-OAT1 and with ciPTEC-OAT3 was “did not affect cell viability” throughout. For the same compound, the Cmax in data set [3] (setting [9]) was 5.5 µM; in data set [3] (setting [10]) it was 6.6 µM. Further, the “Fraction eliminated via the urine without metabolic alterations” value in data set [4] is given as 23%.
